We go through 7 compounds from patent publication US4001230A, “3-(5-Nitroimidazol-2-yl)pyrazolo[3,4-d]pyrimidine compounds” (Eli Lilly and Company, priority 1975, dated 1977).

In brackets after ≈: the same amount, converted by molar mass. Where two headings read alike, the source gives them in different places. Bounds are passed on as bounds.

One assay has as its system P. multocida. Put plainly: In vivo activity in drinking water for treatment of Pasteurella multocida infection in mice (LD50, protective index). Also noted: species or system white female mice. As to conditions: observed 7 days. The method, then:
A comparison of the in vivo activity of a novel compound of this invention and nitrofurazolidone (Furacin) when administered in drinking water for the treatment of Pasteurella multocida infection in mice was conducted. The novel compound of this invention used in this study was 4,5-di-hydro-4-imino-1-methyl-3-(1-methyl-5-nitroimidazol-2-yl)-5-(4-pyridylmethyl)-1H-pyrazolo[3,4-d]pyrimidine diphosphate, identified by its operating example No. 8k. The test was conducted in the following manner.
Twenty white female mice, each weighing about 15-20 g., were divided into four groups of five mice each, and the groups were each placed on water medication containing:
a. Compound 8k, 0.5 g./gal.
b. Compound 8k, 2.0 g./gal.
c. Nitrofurazolidone, 0.5 g./gal.
d. Nitrofurazolidone, 2.0 g./gal.
The groups receiving each treatment were challenged with 0.1 ml. each of a 10^-^4, 10^-^5, 10^-^6, or 10^-^7 dilution of a 16 to 20-hour broth culture of P. multocida. Untreated groups of mice were challenged with log10 dilutions of the same broth culture using 0.1 ml. of 10^-^4 through 10^-^9 dilutions. […] By subtracting the LD50 of each of the treated groups from that of the control group of mice, there was obtained a figure called the protective index.
In the table, column 1 sets forth the treatment; column 2, the LD50; and column 3 the log10 protection obtained.

Another assay relates to Pasteurella multocida. Put plainly: Efficacy against Pasteurella multocida infections in mice when administered by injection. Format: in vivo, Female Swiss mice. As to conditions: for responders at 5 mg/kg / responders at 2.5 mg/kg / responders at 1.25 mg/kg: Pasteurella multocida, ip, read-out: Survival ratio (mice surviving / mice tested) (converted); for responders at 2.5 mg/kg: 2.5 mg./kg. intraperitoneal; for responders at 1.25 mg/kg: 1.25 mg./kg. intraperitoneal. The method, then: The efficacy of the novel compounds against Pasteurella multocida infections in mice when administered by injection was studied.
Female Swiss mice weighing from 15 to about 20 g. were used. The test compound, 5.0 mg., was weighed out and dissolved in 0.5 ml. of dimethyl sulfoxide, and this solution was added to 9.5 ml. of sodium carboxymethylcellulose suspension. Groups of five mice each were injected intraperitoneally with 0.1 ml. each of the above-prepared test composition. This preparation gave a test rate of 2.5 mg. per kilo of body weight of mouse. The compounds were tested at 1.25, 2.5, or 5.0 per kilogram of body weight of mouse, and the test preparations for the rates of 1.25 and 5.0 mg./kg. were prepared in a similar manner. Immediately after receiving the test compound, the mice were challenged using log10 dilutions of 10^-^4, 10^-^5 and 10^-^6,of a 16 to 20-hour tryptose broth culture of Pasteurella multocida at 0.1 ml. per mouse subcutaneously. Similar groups of nontreated control mice were also challenged, the challenge being administered subcutaneously. The groups of mice were observed daily for mortality and the total mortality in treated groups compared with that which occurred in the nonmedicated control groups. Each test compound is identified by the number of the example describing its preparation.
In the chart, column 1 lists the test compound; column 2, the dosage of test compound in mg./kg. of mouse body weight; column 3, the dilution of the challenge organism; and column 4, the ratio of the number of mice surviving the test at each dosage and challenge dilution to the number of mice tested at each dosage and challenge dilution, called the survival ratio.

A further assay deals with Aeromonas liquefaciens. Kind of assay: In vitro activity against fish bacterial pathogen, standard tube dilution test (MIC). The assay is classed as cell-based. Conditions: Aeromonas hydrophila; Aeromonas liquefaciens; tryptose broth, overnight, about 37° C.; read-out: minimum inhibitory concentration (MIC). The method, then:
(§1) The in vitro activity of certain of the novel compounds of this invention against two fish bacterial pathogens was determined using tryptose broth and the standard tube dilution test system. Doubling dilutions ranging from 100.0 to 0.78 mcg./ml. of each of the test compounds were prepared in 5 ml. amounts of tryptose broth. Each tube in the series was then inoculated with one drop from a 24-hour broth culture of either Pseudomonas sp. or a strain of Aeromonas liquefaciens. The tubes were incubated overnight at about 37° C., and the minimum inhibitory concentration (MIC) determined and recorded.
(§2) Column 1 lists the test compounds identified by their operating example number; column 2 lists the MIC for Pseudomonas sp.; and column 3 lists the MIC for Aeromonas liquefaciens.

The next assay concerns Pseudomonas sp. The description is as above. Format: cell-based. Conditions: tryptose broth, overnight, about 37° C., read-out: minimum inhibitory concentration (MIC). Here is the method:
as §1, §2

Another assay has as its system Salmonella typhimurium. Kind of assay: In vivo activity against Salmonella typhimurium in chicks, subcutaneous.
Assay [1] has as its system Trichomonas vaginalis. Put plainly: In vitro activity against Trichomonas vaginalis. The assay is classed as cell-based.
In assay [2] the test system is Trichomonas vaginalis. Kind of assay: In vivo activity against Trichomonas vaginalis.
Another assay relates to Treponema hyodysenteriae. Kind of assay: In vitro activity against Treponema hyodysenteriae on blood agar plates (MIC). The assay is classed as cell-based. As to conditions: for MIC: Brachyspira hyodysenteriae, 96 h, blood agar plates, about 36° C., about 4 days, read-out: minimum inhibitory concentration (MIC); for inhibition of growth of the treponema: doubling dilutions 100 mcg./ml. to 0.39 mcg./ml. Here is the method: A number of representative compounds, namely, 5b, 8, and 15b, were tested for their in vitro activity against Treponema hyodysenteriae. The treponema were propagated on blood agar plates. Each plate which was prepared contained 20 ml. of trypticase soy agar (Baltimore Biological Laboratory [BBL]) with 5.0 g./l. of yeast extract (Difco) and 5 percent sterile defibrinated horse blood. The plates were sterile plastic 15 × 100 mm. petri plates. Incubation was carried out at 37° C. for 4 days under anaerobic conditions using the BBL Gas Pak system.
The concentrations of test compounds in this initial test were prepared in dilutions ranging from 2000 mcg./ml. to 7.8 mcg./ml. The test procedure was carried out in the following manner. Five ml. of a twenty-fold concentration in tryptose broth (Difco) of each filter-sterilized test compound dilution was mixed in a series of flasks containing 90 ml. of melted trypticase soy agar with yeast extract. Five ml. of horse blood was then added per flask. The contents of these flasks were then used to prepare a series of blood agar plates in doubling decreasing dilutions ranging from 100 mcg./ml. to 0.39 mcg./ml.
The treponema for inoculation of these plates were obtained by adding 3.0 ml. of sterile tryptose broth to the surface of a plate on which the treponema had been propagated. A sterile cotton-tipped swab was used to loosen the treponema from the agar. […] The inoculum was spread so that it covered the surface of each plate, a bent sterile plastic pipette being used for this purpose for each plate. The plates were incubated at about 36° C. for about 4 days and then examined for growth of the treponema. The minimum inhibitory concentration (MIC) of each test compound was the concentration that prevented growth of treponema.

Setting [3] is: 5.0 mg./kg. intraperitoneal, challenge dilution 10^-^4 subcutaneous.
[4] abbreviates: 5.0 mg./kg. intraperitoneal, challenge dilution 10^-^5 subcutaneous.
The mark [5] stands for this setting: 5.0 mg./kg. intraperitoneal, challenge dilution 10^-^6 subcutaneous.
The mark [6] stands for this setting: challenge dilution 10^-^4 subcutaneous.
Setting [7] is: challenge dilution 10^-^5 subcutaneous.
Setting [8] is: challenge dilution 10^-^6 subcutaneous.

With “5-[2-(Diethylamino)ethyl]-4,5-dihydro-4-imino-1-methyl-3-(1-methyl-5-nitroimidazol-2-yl)-1H-pyrazolo[3,4-d]-pyrimidine disulfate [Example 8i]”, the “Protective Index (log10 protection)” value in the assay on P. multocida (0.5 g./gal. in drinking water) and in the assay on P. multocida (2.0 g./gal. in drinking water) was over 2.5 in each case.
`CCc1nc2c(c(-c3ncc([N+](=O)[O-])n3C)nn2C)c(=O)[nH]1` [Example 2, 6-Ethyl-1,5-dihydro-1-methyl-3-(1-methyl-5-nitroimidazol-2-yl)-4H-pyrazolo[3,4-d]pyrimidin-4-one]: the values for the responders at 5 mg/kg with Pasteurella multocida (setting [3]), in the assay on Pasteurella multocida (setting [4]) and with Pasteurella multocida (setting [5]) were 20%, 33.3% and 33.3%, respectively. Further, the MIC in the assay on Aeromonas liquefaciens and with Pseudomonas sp. was 50 µg/mL (≈ 165 µM) in each case. In addition, the “in vivo activity against Salmonella typhimurium in chicks” value (“in vivo activity … in chicks” below) with Salmonella typhimurium is listed as “active in vivo against Salmonella typhimurium in chicks”.
On to `Cn1nc(-c2ncc([N+](=O)[O-])n2C)c2c1NC(CCl)(OC(=O)CCl)NC2=O` (stereo not drawn) [Example 3, 6-(Chloromethyl)-6,7-dihydro-6-hydroxy-1-methyl-3-(1-methyl-5-nitroimidazol-2-yl)-1H-pyrazolo[3,4-d]pyrimidin-4-(5H)-one, chloroacetate ester], for which the responders at 2.5 mg/kg with Pasteurella multocida (setting [6]) was 30%; in the assay with Pasteurella multocida (setting [7]) it was 10%; in the assay on Pasteurella multocida (setting [8]) it was 20%. The responders at 5 mg/kg with Pasteurella multocida (setting [3]) is 5%; in the assay on Pasteurella multocida (setting [4]) it was 20%; in the assay with Pasteurella multocida (setting [5]), 25%. Besides, in the assay on Trichomonas vaginalis [1], the “in vitro activity against Trichomonas vaginalis” value (from here on “in vitro activity”) was “active both in vitro and in vivo against Trichomonas vaginalis”. In the assay on Trichomonas vaginalis [2], the “in vivo activity against Trichomonas vaginalis” value is “active both in vitro and in vivo against Trichomonas vaginalis”.
For the compound `CN(C)CCn1cnc2c(c(-c3ncc([N+](=O)[O-])n3C)nn2C)c1=N` [Example 8, 5-[2-(Dimethylamino)ethyl]4,5-dihydro-4-imino-1-methyl-3-(1-methyl-5-nitroimidazol-2-yl)-1H-pyrazolo[3,4-d]pyrimidine], the “Survival ratio (mice surviving / mice tested)” value with Pasteurella multocida (setting [3]) was 10/10. The responders at 1.25 mg/kg is 20% in the assay on Pasteurella multocida (setting [6]), 40% in the assay on Pasteurella multocida (setting [7]) and 60% in the assay with Pasteurella multocida (setting [8]). The responders at 2.5 mg/kg is 40% in the assay with Pasteurella multocida (setting [6]), 60% in the assay with Pasteurella multocida (setting [7]) and 100% with Pasteurella multocida (setting [8]). In addition, the responders at 5 mg/kg with Pasteurella multocida (setting [4]) and with Pasteurella multocida (setting [5]) was 100% throughout. The MIC is 12.5 µg/mL (≈ 36.2 µM) in the assay with Aeromonas liquefaciens, 1.56 µg/mL (≈ 4.52 µM) in the assay with Pseudomonas sp. and at most 1.56 µg/mL in the assay with Treponema hyodysenteriae. For the same compound, the “inhibition of growth of the treponema” value with Treponema hyodysenteriae is on record as “inhibited growth of the treponema at each of the levels tested”. Moreover, in the assay on Salmonella typhimurium, the “in vivo activity … in chicks” value is listed as “active in vivo against Salmonella typhimurium in chicks”. For the same compound, the “in vitro activity” value in the assay on Trichomonas vaginalis [1] is “active both in vitro and in vivo against Trichomonas vaginalis”. Also, the “in vivo activity against Trichomonas vaginalis” value in the assay with Trichomonas vaginalis [2] was “active both in vitro and in vivo against Trichomonas vaginalis”.
As to `CN(C)CCCn1cnc2c(c(-c3ncc([N+](=O)[O-])n3C)nn2C)c1=N` [Example 10, 5-[3-(Dimethylamino)propyl]-4,5-dihydro-4-imino-1-methyl-3-(1-methyl-5-nitroimidazol-2-yl)-1H-pyrazolo[3,4-d]pyrimidine], the responders at 5 mg/kg was 100% with Pasteurella multocida (setting [3]), 80% in the assay with Pasteurella multocida (setting [4]) and 100% with Pasteurella multocida (setting [5]). In the assay on Trichomonas vaginalis [1], the “in vitro activity” value was “active both in vitro and in vivo against Trichomonas vaginalis”. In addition, the “in vivo activity against Trichomonas vaginalis” value in the assay on Trichomonas vaginalis [2] was “active both in vitro and in vivo against Trichomonas vaginalis”.
Consider `Cc1nc2c(c(-c3ncc([N+](=O)[O-])n3C)nn2C)c(=O)[nH]1` [Example 13, 1,5-Dihydro-1,6-dimethyl-3-(1-methyl-5-nitroimidazol-2-yl)-4H-pyrazolo[3,4-d]pyrimidin-4-one], for which the responders at 2.5 mg/kg is 20% with Pasteurella multocida (setting [6]), 20% in the assay on Pasteurella multocida (setting [7]) and 60% with Pasteurella multocida (setting [8]). In addition, the responders at 5 mg/kg in the assay with Pasteurella multocida (setting [3]) was 10%; with Pasteurella multocida (setting [4]), 50%; with Pasteurella multocida (setting [5]), 50%. Also, in the assay on Salmonella typhimurium, the “in vivo activity … in chicks” value is “active in vivo against Salmonella typhimurium in chicks”.
As to `Cn1c([N+](=O)[O-])cnc1-c1nn(C)c2ncn(CCN3CCOCC3)c(=N)c12` [Example 15b, 4,5-Dihydro-4-imino-1-methyl-3-(1-methyl-5-nitroimidazol-2-yl)-5-(2-morpholinoethyl)-1H-pyrazolo[3,4-d]-pyrimidine diphosphate], the MIC is 50 µg/mL in the assay on Aeromonas liquefaciens, 1.56 µg/mL in the assay on Pseudomonas sp. and at most 1.56 µg/mL with Treponema hyodysenteriae. In addition, the “inhibition of growth of the treponema” value in the assay with Treponema hyodysenteriae is reported as “inhibited growth of the treponema at each of the levels tested”.
